From ChEMBL document CHEMBL4425099, “Use of Osmotic Pumps to Establish the Pharmacokinetic-Pharmacodynamic Relationship and Define Desirable Human Performance Characteristics for Aggrecanase Inhibitors” (J Med Chem, 2016)
≈ marks a conversion by molar mass, not a printed value. Calls of active or inactive are those of the source. The calls are words filed in the database; no cut-off is given here.

Key:
[1] = Solubility of the compound at pH 7.5; assay type: physicochemical; details: buffer
[2] = Plasma concentration in Lewis rat model of MIA at 30 mg/mL, sc administered through infusion pump post 3 days MIA induction; assay type: ADME, organism-based
[3] = Ratio of plasma concentration in Lewis rat model of MIA at 30 mg/kg, po bid administered post 3 days MIA induction measured after 12 hrs of last dosage on day 7 to IC50 for human ADAMTS5 in presence of Lewis rat plasma; assay type: ADME, organism-based; details: in vivo
[4] = Ratio of plasma concentration in Lewis rat model of MIA at 30 mg/mL, sc administered through infusion pump post 3 days MIA induction to IC50 for human ADAMTS5 in presence of rat plasma; assay type: ADME, organism-based; details: in vivo, 72 h
[5] = test system: Rattus norvegicus; test: Reduction in ADAMTS-4/ADAMTS-5 mediated aggrecan cleavage products in Lewis rat model of MIA assessed as aggrecanase-cleaved fragments at 4.3 mg/mL, sc administered through infusion pump post 3 days MIA induction measured after 4 hrs of last dosage on day 7 by NITEGE sandwich ELISA; assay type: functional
[6] = Ratio of plasma concentration in Lewis rat model of MIA at 10 mg/mL, sc administered through infusion pump post 3 days MIA induction to IC50 for human ADAMTS5 in presence of rat plasma; assay type: ADME, organism-based; details: in vivo, 72 h
[7] = test system: Rattus norvegicus; test: Reduction in ADAMTS-4/ADAMTS-5 mediated aggrecan cleavage products in Lewis rat model of MIA assessed as aggrecanase-cleaved fragments at 10 mg/mL, sc administered through infusion pump post 3 days MIA induction measured after 4 hrs of last dosage on day 7 by NITEGE sandwich ELISA; assay type: functional
[8] = test system: Rattus norvegicus; test: Reduction in ADAMTS-4/ADAMTS-5 mediated aggrecan cleavage products in Lewis rat model of MIA assessed as aggrecanase-cleaved fragments at 1.44 mg/mL, sc administered through infusion pump post 3 days MIA induction measured after 4 hrs of last dosage on day 7 by NITEGE sandwich ELISA; assay type: functional
[9] = Ratio of plasma concentration in Lewis rat model of MIA at 4.3 mg/mL, sc administered through infusion pump post 3 days MIA induction to IC50 for human ADAMTS5 in presence of rat plasma; assay type: ADME, organism-based; details: in vivo, 72 h
[10] = test system: Rattus norvegicus; test: Reduction in ADAMTS-4/ADAMTS-5 mediated aggrecan cleavage products in Lewis rat model of MIA assessed as aggrecanase-cleaved fragments at 30 mg/mL, sc administered through infusion pump post 3 days MIA induction measured after 4 hrs of last dosage on day 7 by NITEGE sandwich ELISA; assay type: functional
[11] = Ratio of plasma concentration in Lewis rat model of MIA at 30 mg/kg, po bid administered post 3 days MIA induction measured after 1 hr of last dosage on day 7 to IC50 for human ADAMTS5 in presence of Lewis rat plasma; assay type: ADME, organism-based; details: in vivo
[12] = Ratio of plasma concentration in Lewis rat model of MIA at 18 mg/mL, […] post 3 days MIA induction to IC50 for human ADAMTS5 in presence of rat plasma; assay type: ADME, organism-based; details: in vivo, 72 h
[13] = Plasma concentration in Lewis rat model of MIA at 18 mg/mL, […] post 3 days MIA induction; assay type: ADME, organism-based
[14] = Oral bioavailability in rat at 10 mg/kg; assay type: ADME, organism-based; details: in vivo
[15] = Ratio of plasma concentration in Lewis rat model of MIA at 45 mg/kg, po qd administered post 3 days MIA induction measured after 4 hrs of last dosage on day 7 to IC50 for human ADAMTS5 in presence of Lewis rat plasma; assay type: ADME, organism-based; details: in vivo
[16] = Plasma concentration in Lewis rat model of MIA at 60 mg/mL, […] post 3 days MIA induction; assay type: ADME, organism-based
[17] = test system: Rattus norvegicus; test: Reduction in ADAMTS-4/ADAMTS-5 mediated aggrecan cleavage products in Lewis rat model of MIA assessed as aggrecanase-cleaved fragments at 3 mg/kg, po bid administered post 3 days MIA induction measured after 4 hrs of last dosage on day 7 by NITEGE sandwich ELISA relative to vehicle control; assay type: functional, organism-based
[18] = Ratio of plasma concentration in Lewis rat model of MIA at 60 mg/mL, […] post 3 days MIA induction to IC50 for human ADAMTS5 in presence of rat plasma; assay type: ADME, organism-based; details: in vivo, 72 h
[19] = test system: Rattus norvegicus; test: Reduction in ADAMTS-4/ADAMTS-5 mediated aggrecan cleavage products in Lewis rat model of MIA assessed as aggrecanase-cleaved fragments at 18 mg/mL administered through infusion pump post 3 days MIA induction measured after 4 hrs of last dosage on day 7 by NITEGE sandwich ELISA; assay type: functional
[20] = Solubility of the compound at pH 2; assay type: physicochemical; details: buffer

Cn1ccnc1[C@]1(CNC(=O)c2cc3cc(C(F)(F)F)ccc3o2)NC(=O)NC1=O
solubility [1]: 1740 µg/mL (≈ 4130 µM)
concentration at 72 h [2]: 3.6 µM
Ratio [3]: 10
Ratio [4]: 100
inhibition (INH) [5]: 57%
Ratio [6]: 31
inhibition (INH) [7]: 64%
inhibition (INH) [8]: 16%
Ratio [9]: 10
inhibition (INH) [10]: 76%
Ratio [11]: 2000

O=C1NC(=O)[C@](CNC(=O)c2cc3cc(C(F)(F)F)ccc3o2)(C2CC2)N1
Ratio [12]: 35
concentration at 72 h [13]: 2200 nM
bioavailability [14]: 83%
Ratio [15]: 10
concentration at 72 h [16]: 2900 nM
inhibition [17]: Active
Ratio [18]: 46
inhibition (INH) [19]: 56%
solubility [20]: 12 µg/mL (≈ 31.5 µM)
